Test results taken from ChEMBL document CHEMBL1201862, “PubChem BioAssay data set” (2004).
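Method: 48-hour compound exposure of cells in 96-well plates, five concentrations, linear interpolation of endpoints. GI50 marks 50% less growth.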 Active and inactive are the calls of the source. Cut-off read from the data, not from the text of the source: active = GI50 up to about 1.1 µM and inactive = higher.

What was measured:
Assay in all cases: NCI anticancer screen, dose series, 48 h
[1] = system: KM12
[2] = system: OVCAR-5
[3] = system: MOLT-4
[4] = system: RXF 393
[5] = system: K562
[6] = system: M14
[7] = system: SF-295
[8] = system: HOP-62
[9] = system: ACHN
[10] = system: NCI/ADR-RES
[11] = system: LOX IMVI
[12] = system: PC-3
[13] = system: SK-MEL-2
[14] = system: SN12C
[15] = system: HT-29
[16] = system: HL-60
[17] = system: SNB-19
[18] = system: CAKI-1
[19] = system: A549
[20] = system: OVCAR-8
[21] = system: SK-MEL-28
[22] = system: UACC-257
[23] = system: 786-0
[24] = system: NCI-H23
[25] = system: NCI-H226
[26] = system: A498
[27] = system: NCI-H522
[28] = system: SF-268
[29] = system: HCT-15
[30] = system: TK-10
[31] = system: CCRF-CEM
[32] = system: SK-MEL-5
[33] = system: UO-31
[34] = system: OVCAR-4
[35] = system: NCI-H460
[36] = system: OVCAR-3
[37] = system: Hs-578T
[38] = system: U-251
[39] = system: MDA-MB-435
[40] = system: SW-620
[41] = system: MDA-N
[42] = system: MCF7
[43] = system: IGROV-1
[44] = system: Malme-3M
[45] = system: HCC 2998
[46] = system: RPMI-8226
[47] = system: COLO 205
[48] = system: EKVX
[49] = system: UACC-62
[50] = system: T47D
[51] = system: SR
[52] = system: DU-145
[53] = system: HCT-116
[54] = system: MDA-MB-231
[55] = system: BT-549
[56] = system: SNB-75
[57] = system: SK-OV-3
[58] = system: SF-539

C=C1C(=O)C([Si](C)(C)C)=C2C=C(C)C3(CC3)C12C (configuration not stated)
GI50 [1]: 38.3 µM (inactive)
GI50 [2]: > 100 µM (inactive)
GI50 [3]: 1.12 µM (inactive)
GI50 [4]: 15.3 µM (inactive)
GI50 [5]: 19.1 µM (inactive)
GI50 [6]: 39.8 µM (inactive)
GI50 [7]: 30.4 µM (inactive)
GI50 [8]: > 100 µM (inactive)
GI50 [9]: 61.1 µM (inactive)
GI50 [10]: 13.7 µM (inactive)
GI50 [11]: 22.6 µM (inactive)
GI50 [12]: 3.36 µM (inactive)
GI50 [13]: 15.6 µM (inactive)
GI50 [14]: 40.9 µM (inactive)
GI50 [15]: 18.2 µM (inactive)
GI50 [16]: 7.08 µM (inactive)
GI50 [17]: > 100 µM (inactive)
GI50 [18]: 35.6 µM (inactive)
GI50 [19]: 24.2 µM (inactive)
GI50 [20]: 57.4 µM (inactive)
GI50 [21]: 58.1 µM (inactive)
GI50 [22]: 17.9 µM (inactive)
GI50 [23]: 95.3 µM (inactive)
GI50 [24]: 46.6 µM (inactive)
GI50 [25]: 32 µM (inactive)
GI50 [26]: 31 µM (inactive)
GI50 [27]: 14 µM (inactive)
GI50 [28]: 53.2 µM (inactive)
GI50 [29]: 35.8 µM
GI50 [30]: 67.1 µM (inactive)
GI50 [31]: 1.19 µM (inactive)
GI50 [32]: 19.4 µM (inactive)
GI50 [33]: 43.8 µM (inactive)
GI50 [34]: 25.6 µM (inactive)
GI50 [35]: 47.6 µM (inactive)
GI50 [36]: 29.2 µM (inactive)
GI50 [37]: 41.5 µM (inactive)
GI50 [38]: 28.2 µM (inactive)
GI50 [39]: 12.9 µM (inactive)
GI50 [40]: 59.7 µM (inactive)
GI50 [41]: 22.7 µM (inactive)
GI50 [42]: 18.6 µM (inactive)
GI50 [43]: 25.2 µM (inactive)
GI50 [44]: 14.7 µM (inactive)
GI50 [45]: 38.9 µM (inactive)
GI50 [46]: 3.88 µM (inactive)
GI50 [47]: 14.2 µM (inactive)
GI50 [48]: 4.69 µM (inactive)
GI50 [49]: 14.7 µM (inactive)
GI50 [50]: > 100 µM (inactive)
GI50 [51]: 0.0279 µM (active)
GI50 [52]: > 100 µM (inactive)
GI50 [53]: 37.5 µM (inactive)
GI50 [54]: 23 µM (inactive)
GI50 [55]: 25.4 µM (inactive)

Cc1nc2cccc([N+](=O)[O-])c2n1CCCN(C)C
GI50 [1]: > 100 µM (inactive)
GI50 [2]: > 100 µM (inactive)
GI50 [4]: > 100 µM (inactive)
GI50 [5]: > 100 µM (inactive)
GI50 [6]: 22.6 µM (inactive)
GI50 [7]: > 100 µM (inactive)
GI50 [8]: > 100 µM (inactive)
GI50 [9]: > 100 µM (inactive)
GI50 [10]: > 100 µM (inactive)
GI50 [11]: > 100 µM (inactive)
GI50 [12]: > 100 µM (inactive)
GI50 [13]: > 100 µM (inactive)
GI50 [56]: > 100 µM (inactive)
GI50 [14]: > 100 µM (inactive)
GI50 [15]: > 100 µM (inactive)
GI50 [16]: > 100 µM (inactive)
GI50 [17]: > 100 µM (inactive)
GI50 [18]: > 100 µM (inactive)
GI50 [19]: > 100 µM (inactive)
GI50 [20]: > 100 µM (inactive)
GI50 [21]: > 100 µM (inactive)
GI50 [22]: > 100 µM (inactive)
GI50 [23]: > 100 µM (inactive)
GI50 [24]: > 100 µM (inactive)
GI50 [25]: > 100 µM (inactive)
GI50 [26]: > 100 µM (inactive)
GI50 [27]: > 100 µM (inactive)
GI50 [28]: > 100 µM (inactive)
GI50 [29]: > 100 µM
GI50 [30]: > 100 µM (inactive)
GI50 [31]: > 100 µM (inactive)
GI50 [57]: > 100 µM (inactive)
GI50 [32]: > 100 µM (inactive)
GI50 [33]: 16.8 µM (inactive)
GI50 [34]: > 100 µM (inactive)
GI50 [35]: > 100 µM (inactive)
GI50 [36]: > 100 µM (inactive)
GI50 [37]: > 100 µM (inactive)
GI50 [38]: > 100 µM (inactive)
GI50 [39]: > 100 µM (inactive)
GI50 [40]: > 100 µM (inactive)
GI50 [41]: > 100 µM (inactive)
GI50 [42]: > 100 µM (inactive)
GI50 [43]: > 100 µM (inactive)
GI50 [44]: > 100 µM (inactive)
GI50 [45]: > 100 µM (inactive)
GI50 [46]: > 100 µM (inactive)
GI50 [47]: > 100 µM (inactive)
GI50 [48]: > 100 µM (inactive)
GI50 [49]: > 100 µM (inactive)
GI50 [50]: > 100 µM (inactive)
GI50 [51]: > 100 µM (inactive)
GI50 [52]: > 100 µM (inactive)
GI50 [53]: > 100 µM (inactive)
GI50 [54]: > 100 µM (inactive)
GI50 [55]: > 100 µM (inactive)

CCCCCCCCCCCC(=O)c1c(O)cc(C)oc1=O
GI50 [1]: 44.9 µM (inactive)
GI50 [2]: 92.7 µM (inactive)
GI50 [3]: 23.1 µM (inactive)
GI50 [5]: 28.6 µM (inactive)
GI50 [6]: 79.1 µM (inactive)
GI50 [7]: 42.8 µM (inactive)
GI50 [8]: 60 µM (inactive)
GI50 [9]: 31.5 µM (inactive)
GI50 [10]: 33.4 µM (inactive)
GI50 [11]: 28.1 µM (inactive)
GI50 [12]: 27.2 µM (inactive)
GI50 [13]: 56.4 µM (inactive)
GI50 [56]: 36.4 µM (inactive)
GI50 [14]: 33.3 µM (inactive)
GI50 [15]: 66.7 µM (inactive)
GI50 [16]: 42.4 µM (inactive)
GI50 [17]: 62.7 µM (inactive)
GI50 [18]: 40.4 µM (inactive)
GI50 [19]: 27.8 µM (inactive)
GI50 [20]: 33.5 µM (inactive)
GI50 [21]: 75 µM (inactive)
GI50 [22]: 57.9 µM (inactive)
GI50 [23]: 80.9 µM (inactive)
GI50 [24]: 34.8 µM (inactive)
GI50 [25]: 45.6 µM (inactive)
GI50 [26]: 81.8 µM (inactive)
GI50 [27]: 42.4 µM (inactive)
GI50 [28]: 42.2 µM (inactive)
GI50 [29]: 41.7 µM
GI50 [30]: > 100 µM (inactive)
GI50 [31]: 23.7 µM (inactive)
GI50 [58]: 23.8 µM (inactive)
GI50 [57]: 64.6 µM (inactive)
GI50 [32]: 29 µM (inactive)
GI50 [33]: 40.6 µM (inactive)
GI50 [35]: 57.4 µM (inactive)
GI50 [36]: 55.5 µM (inactive)
GI50 [37]: 51.6 µM (inactive)
GI50 [38]: 48.5 µM (inactive)
GI50 [39]: 49.5 µM (inactive)
GI50 [40]: 41.1 µM (inactive)
GI50 [41]: 34.6 µM (inactive)
GI50 [42]: 37.8 µM (inactive)
GI50 [43]: 55.5 µM (inactive)
GI50 [44]: 45 µM (inactive)
GI50 [45]: 42 µM (inactive)
GI50 [46]: > 100 µM (inactive)
GI50 [47]: 26.5 µM (inactive)
GI50 [48]: 38.5 µM (inactive)
GI50 [49]: 49.7 µM (inactive)
GI50 [50]: 34.8 µM (inactive)
GI50 [51]: > 10 µM (inactive)
GI50 [52]: 48.3 µM (inactive)
GI50 [53]: 45.7 µM (inactive)
GI50 [54]: 28.8 µM (inactive)
GI50 [55]: 87.1 µM (inactive)
